In article PMC12802961 (Journal of Antimicrobial Chemotherapy, 2025):

Legend:
[1] = test system: two ESBL-producing Enterobacterales and one AmpC- and one VIM-producing P. aeruginosa isolates; test: Checkerboard broth microdilution MIC, all four strains together; type: cell-based
Excerpt: (§1) Four previously well-characterized cefepime-resistant isolates, namely one ESBL-producing E. coli, one ESBL-producing K. pneumoniae and two P. aeruginosa (one VIM- and one AmpC constitutively -producing), were used.

[2] = test system: β-lactamase–producing Enterobacterales and Pseudomonas aeruginosa; test: Neutropenic murine thigh infection model, all isolates together; type: in vivo
Method: (§2) […]. […] […]. All dosing regimens were performed in at least two animals per dosing regimen.
(§3) At t = 0 h, 2 h after infection, two mice were humanely euthanized to determine the initial number of cfu/thigh just before treatment. All other animals were euthanized at t = 24 h unless the welfare of the animals indicated earlier termination, following animal welfare regulations. Thighs were taken and moved to a pre-cooled 10 mL plastic tube (Transport Tube, Omnilabo, NL) containing 2 mL PBS (NaCl 8.00 g/L, Na2HPO4 * 2H2O 1.44 g/L, KH2PO4 0.26 g/L, pH 7.2–7.4). Subsequently, thighs were homogenized using the Ultra-Turrax homogenizer (IKA Labortechnik, Germany). For each thigh 10-fold dilution series were prepared and 3 × 10 µL per dilution were plated (Chromagar, bioMérieux, NL). The following day, colonies were counted and the number of cfu/thigh was calculated. The drug effect was then determined as the difference between the log10cfu/thigh values at t = 24 h and t = 0 h (mean value of two mice) expressed as Δlog10cfu, i.e. positive result for growth, zero for static effect and negative for reduction of inoculum (killing).
(§4) . […] Free drug concentrations were used in all calculations. […]

KPC P. aeruginosa = KPC P. aeruginosa strain of previous animal study, cited from earlier work
[3] = human simulated regimen of cefepime 2 g q8h as 2 h infusion; cited from earlier work
KPC K. pneumoniae = KPC K. pneumoniae strain of previous animal study, cited from earlier work
K. pneumoniae 59 = test: Checkerboard broth microdilution MIC of cefepime alone and with taniborbactam; type: cell-based, Klebsiella pneumoniae
Excerpt: as §1

P. aeruginosa 132 = test: as above; type: cell-based, Pseudomonas aeruginosa
Excerpt: as §1

P. aeruginosa 106 = test: as above; type: cell-based, Pseudomonas aeruginosa
Excerpt: as §1

E. coli 52 = test: as above; type: cell-based, Escherichia coli
Excerpt: as §1

[4] = human, in vivo; cited from earlier work
[5] = test system: MBL- and ESBL-producing isolates; conditions: cited from earlier work
P. aeruginosa isolates = test: Neutropenic murine thigh infection model, P. aeruginosa isolates together; type: in vivo, Pseudomonas aeruginosa; conditions: Ct where in vitro reversal of cefepime resistance was found
Method: as §2, §3, §4

[6] = test system: ESBL-producing Enterobacterales; test: Neutropenic murine thigh infection model, Enterobacterales together; type: in vivo; conditions: Ct where in vitro reversal of cefepime resistance was found
Method: as §2, §3, §4

[7] = in vivo
[8] = test system: AmpC constitutively-producing P. aeruginosa; conditions: cited from earlier work
[9] = Ct = taniborbactam concentration where reversal of cefepime resistance was found in vitro

With `CO/N=C(\C(=O)N[C@@H]1C(=O)N2C(C(=O)[O-])=C(C[N+]3(C)CCCC3)CS[C@H]12)c1csc(N)n1` [cefepime, Cefepime] the “Cefepime MIC in the presence of 4 mg/L taniborbactam, all strains” value ([1]; +taniborbactam 4 mg/L) was 0.06 to 4 µg/mL, the MIC ([1]; Pseudomonas aeruginosa, read-out: Cefepime MIC, all strains, cefepime alone) was 16 to 256 µg/mL and the “Cefepime MIC, all strains” value ([1]; cefepime alone) was > 8 µg/mL. The “Effect of cefepime alone” value ([2]; against Enterobacterales and AmpC-producing P. aeruginosa) was “marginally reached stasis”, the “unpotentiated cefepime MIC” value (KPC P. aeruginosa) was > 512 µg/mL and the “potentiated cefepime MIC” value (KPC P. aeruginosa; with taniborbactam) was 4 µg/mL. The fAUC0-24 [3] was ~787.8 µg·h/mL, the “unpotentiated cefepime MIC” value (KPC K. pneumoniae) was > 512 µg/mL and the “potentiated cefepime MIC” value (KPC K. pneumoniae; with taniborbactam) was 2 µg/mL. The “Cefepime MIC at taniborbactam 0.03 mg/L” value (K. pneumoniae 59; K. pneumoniae 59, +taniborbactam 0.03 mg/L) was 64 µg/mL, the “Cefepime MIC at taniborbactam 0.06 mg/L” value (K. pneumoniae 59; K. pneumoniae 59, +taniborbactam 0.06 mg/L) was 32 µg/mL and the “Cefepime MIC at taniborbactam 0.125 mg/L” value (K. pneumoniae 59; K. pneumoniae 59, +taniborbactam 0.125 mg/L) was 8 µg/mL. For the same molecule, the “Cefepime MIC at taniborbactam 0.25 mg/L” value (K. pneumoniae 59; K. pneumoniae 59, +taniborbactam 0.25 mg/L) was 2 µg/mL, the “Cefepime MIC at taniborbactam 0.5 mg/L” value (K. pneumoniae 59; K. pneumoniae 59, +taniborbactam 0.5 mg/L) was 1 µg/mL and the “Cefepime MIC at taniborbactam 1 mg/L” value (K. pneumoniae 59; K. pneumoniae 59, +taniborbactam 1 mg/L) was 1 µg/mL. The “Cefepime MIC at taniborbactam 2 mg/L” value (K. pneumoniae 59; K. pneumoniae 59, +taniborbactam 2 mg/L) was 1 µg/mL, the “Cefepime MIC at taniborbactam 4 mg/L (potMIC)” value (shortened to “Cefepime MIC … (potMIC)”) (K. pneumoniae 59; K. pneumoniae 59, +taniborbactam 4 mg/L) was 0.5 µg/mL and the MIC (K. pneumoniae 59; Klebsiella pneumoniae, 59, read-out: Cefepime MIC (mg/L) alone) was 256 mg/L. The “Cefepime MIC at taniborbactam 0.03 mg/L” value (P. aeruginosa 132; P. aeruginosa 132, +taniborbactam 0.03 mg/L) was 16 µg/mL, the “Cefepime MIC at taniborbactam 0.06 mg/L” value (P. aeruginosa 132; P. aeruginosa 132, +taniborbactam 0.06 mg/L) was 16 µg/mL and the “Cefepime MIC at taniborbactam 0.125 mg/L” value (P. aeruginosa 132; P. aeruginosa 132, +taniborbactam 0.125 mg/L) was 8 µg/mL. The “Cefepime MIC at taniborbactam 0.25 mg/L” value (P. aeruginosa 132; P. aeruginosa 132, +taniborbactam 0.25 mg/L) was 4 µg/mL, the “Cefepime MIC at taniborbactam 0.5 mg/L” value (P. aeruginosa 132; P. aeruginosa 132, +taniborbactam 0.5 mg/L) was 2 µg/mL and the “Cefepime MIC at taniborbactam 1 mg/L” value (P. aeruginosa 132; P. aeruginosa 132, +taniborbactam 1 mg/L) was 1 µg/mL. The “Cefepime MIC at taniborbactam 2 mg/L” value (P. aeruginosa 132; P. aeruginosa 132, +taniborbactam 2 mg/L) was 1 µg/mL, the “Cefepime MIC … (potMIC)” value (P. aeruginosa 132; P. aeruginosa 132, +taniborbactam 4 mg/L) was 1 µg/mL and the MIC (P. aeruginosa 132; Pseudomonas aeruginosa, 132, read-out: Cefepime MIC (mg/L) alone) was 16 mg/L. The “Cefepime MIC at taniborbactam 0.03 mg/L” value (P. aeruginosa 106; P. aeruginosa 106, +taniborbactam 0.03 mg/L) was 32 µg/mL, the “Cefepime MIC at taniborbactam 0.06 mg/L” value (P. aeruginosa 106; P. aeruginosa 106, +taniborbactam 0.06 mg/L) was 32 µg/mL and the “Cefepime MIC at taniborbactam 0.125 mg/L” value (P. aeruginosa 106; P. aeruginosa 106, +taniborbactam 0.125 mg/L) was 32 µg/mL. The “Cefepime MIC at taniborbactam 0.25 mg/L” value (P. aeruginosa 106; P. aeruginosa 106, +taniborbactam 0.25 mg/L) was 16 µg/mL, the “Cefepime MIC at taniborbactam 0.5 mg/L” value (P. aeruginosa 106; P. aeruginosa 106, +taniborbactam 0.5 mg/L) was 16 µg/mL and the “Cefepime MIC at taniborbactam 1 mg/L” value (P. aeruginosa 106; P. aeruginosa 106, +taniborbactam 1 mg/L) was 16 µg/mL. The “Cefepime MIC at taniborbactam 2 mg/L” value (P. aeruginosa 106; P. aeruginosa 106, +taniborbactam 2 mg/L) was 8 µg/mL, the “Cefepime MIC … (potMIC)” value (P. aeruginosa 106; P. aeruginosa 106, +taniborbactam 4 mg/L) was 4 µg/mL and the MIC (P. aeruginosa 106; Pseudomonas aeruginosa, 106, read-out: Cefepime MIC (mg/L) alone) was 32 mg/L. The “Cefepime MIC at taniborbactam 0.03 mg/L” value (E. coli 52; E. coli 52, +taniborbactam 0.03 mg/L) was 0.5 µg/mL, the “Cefepime MIC at taniborbactam 0.06 mg/L” value (E. coli 52; E. coli 52, +taniborbactam 0.06 mg/L) was 0.5 µg/mL and the “Cefepime MIC at taniborbactam 0.125 mg/L” value (E. coli 52; E. coli 52, +taniborbactam 0.125 mg/L) was 0.25 µg/mL. For the same molecule, the “Cefepime MIC at taniborbactam 0.25 mg/L” value (E. coli 52; E. coli 52, +taniborbactam 0.25 mg/L) was 0.125 µg/mL, the “Cefepime MIC at taniborbactam 0.5 mg/L” value (E. coli 52; E. coli 52, +taniborbactam 0.5 mg/L) was 0.06 µg/mL and the “Cefepime MIC at taniborbactam 1 mg/L” value (E. coli 52; E. coli 52, +taniborbactam 1 mg/L) was 0.125 µg/mL. For the same molecule, the “Cefepime MIC at taniborbactam 2 mg/L” value (E. coli 52; E. coli 52, +taniborbactam 2 mg/L) was 0.06 µg/mL, the “Cefepime MIC … (potMIC)” value (E. coli 52; E. coli 52, +taniborbactam 4 mg/L) was 0.06 µg/mL and the MIC (E. coli 52; Escherichia coli, 52, read-out: Cefepime MIC (mg/L) alone) was 32 mg/L.

For `NCCN[C@H]1CC[C@H](CC(=O)N[C@H]2Cc3cccc(C(=O)O)c3OB2O)CC1` [taniborbactam, Taniborbactam], the half-life [4] is given as 10 h, the “%fT > Ct of taniborbactam associated with 1 log10 kill” value [2, 9] is given as 60%–100% and the “%fT > Ct of taniborbactam associated with stasis” value [2, 9] is given as 40%–50%. The “Effect of taniborbactam on cefepime's static effect” value ([2]; all isolates, combined with cefepime) was “restored cefepime’s static effect against all isolates”, the “Taniborbactam TDDs at which cefepime regained its static effect” value ([2]; all isolates, with marginally ineffective doses of cefepime) was 3.2 to 105 mg/kg and the “Taniborbactam TDDs at which cefepime regained its 1 log10 kill effect” value ([2]; all strains except K. pneumoniae) was 26–293 mg/kg. For the same molecule, the “q2h regimens more effective than q8h regimens” value ([2]; taniborbactam dose fractionation with cefepime q2h) was > 10 fold, the “Cefepime MIC reduction” value [5] was ≥ 2 fold and the “%fT > Ct for 1 log kill” value (P. aeruginosa isolates) was ~60%. The “%fT > Ct for stasis” value (P. aeruginosa isolates) was ~40%, the “Taniborbactam concentration at which reversal of phenotypic resistance to cefepime was observed” value (from here on “Taniborbactam concentration”) (K. pneumoniae 59; ESBL-producing K. pneumoniae, in vitro checkerboard) was 0.25 mg/L and the “Taniborbactam concentration” value (P. aeruginosa 132; VIM-producing P. aeruginosa, in vitro checkerboard) was 0.125 mg/L. The “Taniborbactam concentration” value (P. aeruginosa 106; AmpC constitutively-producing P. aeruginosa, in vitro checkerboard) was 2 mg/L, the “%fT > Ct for 1 log kill” value [6] was 100% and the “%fT > Ct for stasis” value [6] was ~50%. For the same molecule, the “fT > Ct 8 mg/L” value [7] was 100%, the “Taniborbactam concentration” value (E. coli 52; ESBL-producing E. coli, in vitro checkerboard) was ≤ 0.03 mg/L and the “Reduction of cefepime MICs (fold dilution)” value [8] was 2 fold.
